In series [1] the target is T1, HpHtrA (Helicobacter pylori, UniProt G2J5T2).
T1 construct: (HpHtrA, G18-K475, UniProt G2J5T2); GST (N, cleaved yes); made in house; host or cells: E. coli BL21
T1 sequence (G2J5T2 18-475): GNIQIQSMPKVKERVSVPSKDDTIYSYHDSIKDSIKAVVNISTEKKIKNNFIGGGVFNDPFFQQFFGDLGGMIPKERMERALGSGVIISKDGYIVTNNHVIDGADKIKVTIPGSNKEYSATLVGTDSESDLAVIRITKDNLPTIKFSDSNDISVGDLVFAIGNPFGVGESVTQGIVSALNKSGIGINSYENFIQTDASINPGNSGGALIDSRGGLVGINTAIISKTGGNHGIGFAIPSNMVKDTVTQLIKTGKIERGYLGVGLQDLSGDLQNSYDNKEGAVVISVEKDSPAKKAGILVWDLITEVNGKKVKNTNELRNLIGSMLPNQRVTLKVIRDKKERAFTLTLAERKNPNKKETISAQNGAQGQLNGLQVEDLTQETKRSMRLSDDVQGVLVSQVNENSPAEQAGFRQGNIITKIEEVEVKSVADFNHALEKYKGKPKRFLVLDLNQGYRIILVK
The experiment in a line: in vitro E-cadherin (hCdh1) cleavage by HpHtrA (Western blot). The series is classed as biochemical. To be noted: 1 mM; 50 ng hCdh1, 250 ng HpHtrA, 16 h, 37 °C. From the text: (§1) The proteins were separated by SDS-PAGE and visualized by staining with Coomassie Brilliant Blue G250 (Lactan, Vienna, Austria). […] Proteins were separated using SDS-PAGE and blotted onto a nitrocellulose membrane. Human Cdh1 was detected by an antibody recognizing the EC5 domain of hCdh1 (Abcam, Cambridge, UK) and a polyclonal serum was used to detect HpHtrA[22]. Independent experiments were repeated at least three times.

Series [2] addresses T1, HpHtrA. Description: in vitro casein cleavage by HpHtrA (Coomassie SDS-PAGE). The note with it: 1 mM; 10 µg casein, 250 ng HpHtrA, 16 h, 37 °C. The series is classed as biochemical.
Description: as §1

Series [3] is classed as physicochemical. The note with it: 50 mM HEPES pH 7.4, 3 h, 37 °C, absence of protease and presence of HpHtrA SA mutant. As to the method: (§2) Fig. S4. MS analysis of the HpHtrA-mediated cleavage products of 2-Abz-AQRVAF-Y(3-NO2)-NH2. The […]
(§3) ratio in 50 mM HEPES buffer (pH 7.4) for 3 h at 37°C. The samples were desalted by using ZipTip® pipette tips (Merck Millipore) and measured by MALDI -TOF-MS (positive mode). The peptide was found to be stable in the buffer in the absence of the protease as well as in the presence of the HpHtrA […]
(§4) (1 picture or pasted object on this page, not shown here)

In another series the target is T2, HpHtrA wt (Helicobacter pylori, UniProt G2J5T2).
T2 sequence (G2J5T2 18-475): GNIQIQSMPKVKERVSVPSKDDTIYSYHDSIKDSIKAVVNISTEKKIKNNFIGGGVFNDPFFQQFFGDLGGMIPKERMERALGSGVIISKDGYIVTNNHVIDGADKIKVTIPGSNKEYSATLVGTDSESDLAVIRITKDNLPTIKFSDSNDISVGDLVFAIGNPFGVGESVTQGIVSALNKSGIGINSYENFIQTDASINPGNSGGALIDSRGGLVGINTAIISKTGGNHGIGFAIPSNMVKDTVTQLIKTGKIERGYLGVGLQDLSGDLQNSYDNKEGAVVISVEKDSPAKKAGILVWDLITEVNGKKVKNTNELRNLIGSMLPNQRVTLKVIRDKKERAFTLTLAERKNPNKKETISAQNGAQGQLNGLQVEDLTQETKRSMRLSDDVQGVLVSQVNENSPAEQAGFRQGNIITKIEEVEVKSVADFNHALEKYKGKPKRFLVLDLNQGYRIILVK
The experiment in a line: MS analysis of HpHtrA-mediated cleavage of the FRET peptide. The note with it: peptide:HpHtrA 20:1, 50 mM HEPES pH 7.4, 3 h, 37 °C, MALDI-TOF-MS. Also on record: (HpHtrA, G18-K475, UniProt G2J5T2); GST (N, cleaved yes); made in house; host or cells: E. coli BL21. Format: biochemical. As to the method: as §2, §3, §4

Series [4] concerns the molecule itself. The experiment in a line: casein zymography + other: non-reducing SDS-PAGE; recombinant HpHtrA proteins in non-reducing sample buffer without beta-mercaptoethanol; SDS-PAGE with 0.1% casein, renatured and developed 24 h at 37 °C, or Coomassie-stained non-reducing SDS-PAGE for detection of multimers.
Series [5] deals with the molecule itself. The experiment in a line: non-reducing SDS-PAGE; HpHtrA wt untreated or with increasing concentrations of ZnCl2 or CuCl2; Coomassie-stained SDS-PAGE under non-reducing conditions.

Where no end group is shown, it is not given here. [ ]: non-standard residue; d: D form. Tyr(3-NO2) = N[C@@H](Cc1ccc(O)c([N+](=O)[O-])c1)C(=O)O; 2Abz = Nc1ccccc1C(=O)O

Turning to `[Ca+2].[Cl-].[Cl-]` [Ca^++, CaCl2], the “effect on HpHtrA-mediated hCdh1 cleavage/fragmentation” value at HpHtrA [1] was “significantly blocked”. As for `O=C(O)CN(CCOCCOCCN(CC(=O)O)CC(=O)O)CC(=O)O` [EGTA, ethylene glycol-bis(β-aminoethyl ether)-N,N,N′,N′-tetraacetic acid, reference compound], the “effect on HtrA-mediated casein degradation” value at HpHtrA [2] is on record as “did not alter”. Moreover, the “effect on HpHtrA-mediated hCdh1 cleavage/fragmentation” value on HpHtrA [1] is listed as “considerably enhanced”. The matching figures for `O=C(O)CN(CCN(CC(=O)O)CC(=O)O)CC(=O)O` [EDTA, ethylenediaminetetraacetic acid, reference compound]: “did not alter” and “considerably enhanced”. Regarding “2-Abz-AQRVAF-Y(3-NO2)-NH2 ([2Abz]AQRVAF[Tyr(3-NO2)]-NH2; N-terminus assumed; SMILES CC(C)[C@H](NC(=O)[C@H](CCCNC(=N)N)NC(=O)[C@H](CCC(N)=O)NC(=O)[C@H](C)NC(=O)c1ccccc1N)C(=O)N[C@@H](C)C(=O)N[C@@H](Cc1ccccc1)C(=O)N[C@@H](Cc1ccc(O)c([N+](=O)[O-])c1)C(N)=O) [FRET substrate peptide AQRVAF with N-terminal 2-aminobenzoyl fluorophore and C-terminal 3-nitro-tyrosine quencher]”, in series [3], the “stability of the peptide” value is reported as “stable”. Also, the “cleavage of the peptide by HpHtrA” value with HpHtrA wt is given as “fully cleaved, preferentially after Val”.

B1: HpHtrA S164A (enzyme)
chain: GNIQIQSMPKVKERVSVPSKDDTIYSYHDSIKDSIKAVVNISTEKKIKNNFIGGGVFNDPFFQQFFGDLGGMIPKERMERALGSGVIISKDGYIVTNNHVIDGADKIKVTIPGSNKEYSATLVGTDSESDLAVIRITKDNLPTIKFADSNDISVGDLVFAIGNPFGVGESVTQGIVSALNKSGIGINSYENFIQTDASINPGNSGGALIDSRGGLVGINTAIISKTGGNHGIGFAIPSNMVKDTVTQLIKTGKIERGYLGVGLQDLSGDLQNSYDNKEGAVVISVEKDSPAKKAGILVWDLITEVNGKKVKNTNELRNLIGSMLPNQRVTLKVIRDKKERAFTLTLAERKNPNKKETISAQNGAQGQLNGLQVEDLTQETKRSMRLSDDVQGVLVSQVNENSPAEQAGFRQGNIITKIEEVEVKSVADFNHALEKYKGKPKRFLVLDLNQGYRIILVK
In the case of B1, the binding result in series [4] is reported as “binds”.

B2: HtrA wild type (wt) from the H. pylori strain Hp26695 (enzyme)
chain: GNIQIQSMPKVKERVSVPSKDDTIYSYHDSIKDSIKAVVNISTEKKIKNNFIGGGVFNDPFFQQFFGDLGGMIPKERMERALGSGVIISKDGYIVTNNHVIDGADKIKVTIPGSNKEYSATLVGTDSESDLAVIRITKDNLPTIKFSDSNDISVGDLVFAIGNPFGVGESVTQGIVSALNKSGIGINSYENFIQTDASINPGNSGGALIDSRGGLVGINTAIISKTGGNHGIGFAIPSNMVKDTVTQLIKTGKIERGYLGVGLQDLSGDLQNSYDNKEGAVVISVEKDSPAKKAGILVWDLITEVNGKKVKNTNELRNLIGSMLPNQRVTLKVIRDKKERAFTLTLAERKNPNKKETISAQNGAQGQLNGLQVEDLTQETKRSMRLSDDVQGVLVSQVNENSPAEQAGFRQGNIITKIEEVEVKSVADFNHALEKYKGKPKRFLVLDLNQGYRIILVK
notes: also called HpHtrA; HpHtrA wt
On to B2, for which, in series [5], the binding result is listed as “binds”.
